Source: ChEMBL document CHEMBL3797072, “Discovery of Potent, Selective, and Orally Bioavailable Small-Molecule Modulators of the Mediator Complex-Associated Kinases CDK8 and CDK19” (J Med Chem, 2016)
Converted amounts (≈) assume the structure as drawn.

Columns and labels:
in vivo [1] = conditions: mouse, plasma
in vivo [2] = conditions: mouse, faeces
in vivo [3] = conditions: mouse, plasma; remark: listed apart in the source
in vivo [4] = conditions: mouse, faeces; remark: listed apart in the source
in vivo [5] = conditions: NMRI, mouse
in vivo [6] = conditions: Beagle, dog
in vitro [7] = conditions: rat, microsomes
in vitro [8] = conditions: mouse, microsomes
in vitro [9] = conditions: human, microsomes
physchem [10] = assay: physchem
in vivo [11] = conditions: Wistar, rat
physchem [12] = assay: physchem; remark: listed apart in the source

Structure (SMILES) | clearance (in vivo [1]) | dose excreted (in vivo [2]) | clearance (in vivo [3]) | dose excreted (in vivo [4]) | solubility thermodynamic (physchem [10]) | also measured
Cn1cc(-c2ccc(-c3cncc(Cl)c3N3CCC4(CCNC4=O)CC3)cc2)cn1 | 39 mL/min/kg | 9.1% | 38.3 mL/min/kg | < 1% | 6 µg/mL (≈ 14.2 µM) | half-life (in vivo [5]): 33 min; half-life (in vivo [6]): 42 min; microsomal CLint (in vitro [7]): 54 µL/min/mg; microsomal CLint (in vitro [8]): 141 µL/min/mg; microsomal CLint (in vitro [9]): 84 µL/min/mg
CN1c2ccc(-c3cnc(N)c(F)c3N3CCC4(CCNC4=O)CC3)cc2CS1(=O)=O |  |  |  |  | 29 µg/mL (≈ 65.1 µM) | 
Cn1cc(-c2ccc(-c3cnc(N)c(Cl)c3N3CCC4(CC3)CNC(=O)O4)cc2)cn1 | 43.2 mL/min/kg | 17% | 47.3 mL/min/kg | < 1% |  | 
Cn1cc(-c2ccc(-c3cnc(N)c(Cl)c3N3CCC4(CCNC4=O)CC3)cc2)cn1 |  |  |  |  | 2 µg/mL (≈ 4.58 µM) | 
Cn1ncc2cc(-c3cnc(N)c(Cl)c3N3CCC4(CCNC4=O)CC3)ccc21 |  |  |  |  | 40 µg/mL (≈ 97.3 µM) | half-life (in vivo [5]): 46.8 min; half-life (in vivo [11]): 66 min; half-life (in vivo [6]): 59.4 min
CC(C)(O)Cn1cc(-c2ccc(-c3cnc(N)c(Cl)c3N3CCC4(CCNC4=O)CC3)cc2)cn1 |  |  |  |  | < 1 µg/mL | 
Cn1cc(-c2ccc(-c3cnc(N)c(C(F)(F)F)c3N3CCC4(CC3)CNC(=O)O4)cc2)cn1 |  |  |  |  | 1 µg/mL (≈ 2.12 µM) | 
Cn1cc(-c2ccc(-c3cncc(Cl)c3N3CCC4(CC3)NCNC4=O)cc2)cn1 |  |  |  |  | 47 µg/mL (≈ 111 µM) | 
COCCN1CCCC12CCN(c1c(Cl)cncc1-c1ccc3c(c1)CS(=O)(=O)N3C)CC2 |  |  |  |  | 248 µg/mL (≈ 505 µM) | 
CN1c2ccc(-c3cnc(N)c(Cl)c3N3CCC4(CC3)CNC(=O)O4)cc2CS1(=O)=O | 68 mL/min/kg | 20% | 47.5 mL/min/kg | < 1% |  | 
Cn1ncc2cc(-c3cnc(N)c(Cl)c3N3CCC4(CC3)CNC(=O)O4)ccc21 |  |  |  |  | 3 µg/mL (≈ 7.27 µM) | 
CN1c2ccc(-c3cncc(Cl)c3N3CCC4(CC3)CNC(=O)O4)cc2CS1(=O)=O | 81.5 mL/min/kg | 18% | 66.7 mL/min/kg | < 1% | 17 µg/mL (≈ 37.9 µM) | 
Cn1cc(-c2ccc(-c3cncc(Cl)c3N3CCC4(CC3)NC(=O)CNC4=O)cc2)cn1 | 73.8 mL/min/kg | 67% | 37 mL/min/kg | 24% |  | 
Cn1cc(-c2ccc(-c3cncc(Cl)c3N3CCC4(CC3)CNC(=O)O4)cc2)cn1 |  |  |  |  | 3 µg/mL (≈ 7.08 µM) | 
CC(C)n1ncc2cc(-c3cnc(N)c(Cl)c3N3CCC4(CCNC4=O)CC3)ccc21 |  |  |  |  |  | microsomal CLint (in vitro [7]): 139 µL/min/mg; microsomal CLint (in vitro [8]): 202 µL/min/mg; microsomal CLint (in vitro [9]): 202 µL/min/mg; solubility kinetic (physchem [12]): 126 µM (≈ 55.3 µg/mL)
